The source of these data is US20250115600A1, “COVALENT MODIFIERS OF AKT1 AND USES THEREOF” (Terremoto Biosciences, Inc., priority 2022, published 2025).

Data set [1] concerns the target T1, AKT1 WT (Homo sapiens (Human), UniProt P31749). Kind of data set: Intact mass spectrometry, covalent complex formation and ARQ-092 competition. Format: binding. Conditions: protein 1 μM, compound 1.5 μM, 2 hrs at 37° C., NaBH4 reduction; for covalent complex formation with AKT1 WT protein: absence of competitor; for covalent complex formation with AKT1 WT protein in presence of competitor: with ARQ092 (50 μM). The method in brief: (§1)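 AKT1 WT or E17K (1 μM) was incubated with compound (1.5 μM) for 2 hrs at 37° C., with or without ARQ092 (50 μM) competitor as specificity control. Imines were reduced with 5 mM NaBH4 for 5 min, quenched in acetonitrile+1% TFA, and covalent adducts read by intact-mass LCMS.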
Target sequence in this assay (P31749 2-480): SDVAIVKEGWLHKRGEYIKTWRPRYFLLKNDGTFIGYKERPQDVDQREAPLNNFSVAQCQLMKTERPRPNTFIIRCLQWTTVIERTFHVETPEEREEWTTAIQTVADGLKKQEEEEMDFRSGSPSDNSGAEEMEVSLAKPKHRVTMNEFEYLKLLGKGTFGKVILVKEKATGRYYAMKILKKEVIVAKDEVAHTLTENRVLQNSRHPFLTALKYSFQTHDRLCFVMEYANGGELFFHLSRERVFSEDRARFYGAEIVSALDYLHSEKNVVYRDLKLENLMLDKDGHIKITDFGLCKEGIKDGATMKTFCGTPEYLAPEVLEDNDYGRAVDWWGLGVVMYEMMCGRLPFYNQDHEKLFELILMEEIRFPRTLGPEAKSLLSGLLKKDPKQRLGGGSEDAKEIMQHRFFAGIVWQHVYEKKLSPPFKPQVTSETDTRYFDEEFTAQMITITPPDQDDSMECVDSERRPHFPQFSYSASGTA

For another data set, the target named is AKT1 E17K mutant protein (Homo sapiens (Human), UniProt P31749, E17K). The data set is described as above. The format is binding. The conditions noted are these: for covalent complex formation with AKT1 E17K mutant protein / covalent complex formation with AKT1 E17K mutant protein in presence of competitor: protein 1 μM, compound 1.5 μM, 2 hrs at 37° C., NaBH4 reduction; for covalent complex formation with AKT1 E17K mutant protein: absence of competitor; for covalent complex formation with AKT1 E17K mutant protein in presence of competitor: with ARQ092 (50 μM). The method in brief:
as §1

The target of data set [2] is T2, AKT1 E17K (Homo sapiens (Human), UniProt P31749, E17K). Kind of data set: Live cell target engagement (NanoBRET) in HEK293 cells. Format: cell-based. The conditions noted are these: for IC50: HEK293, 2 hours at 37° C.
Target sequence in this assay (P31749 whole entry E17K): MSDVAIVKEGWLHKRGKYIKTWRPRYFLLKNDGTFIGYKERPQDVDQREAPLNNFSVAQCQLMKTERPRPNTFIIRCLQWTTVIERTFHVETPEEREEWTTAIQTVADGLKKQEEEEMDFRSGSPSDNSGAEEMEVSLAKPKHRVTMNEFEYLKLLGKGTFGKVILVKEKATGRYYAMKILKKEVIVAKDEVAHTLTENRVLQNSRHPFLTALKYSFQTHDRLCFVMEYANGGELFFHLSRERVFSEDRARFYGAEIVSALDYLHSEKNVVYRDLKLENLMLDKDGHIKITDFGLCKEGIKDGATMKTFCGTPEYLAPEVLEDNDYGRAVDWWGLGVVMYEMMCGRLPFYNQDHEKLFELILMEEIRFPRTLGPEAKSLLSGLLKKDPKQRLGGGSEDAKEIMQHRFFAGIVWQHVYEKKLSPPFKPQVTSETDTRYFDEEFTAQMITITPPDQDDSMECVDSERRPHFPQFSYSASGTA
Data set [3] concerns the target T1, AKT1 WT. Kind of data set: Dissociation rate by intact protein LCMS after ARQ092 chase. Format: binding. The conditions noted are these: compound 1.5 μM, 2 hours at 37° C., then ARQ092 50 μM. As to the method:
(§2) AKT1 WT or AKT1 E17K (1 μM) were treated with a compound of Table 1 (1.5 μM) for 2 hours at 37° C., then ARQ092 (50 μM final concentration) was added to prevent aldehyde-containing compound rebinding after initial dissociation. At various timepoints, aliquots were removed and quenched with 5 mM NaBH4 for 5 min to capture the reversible imine through reductive amination. Reduction reactions were quenched by diluting the sample in equal volume acetonitrile+1% TFA, then analyzed by LCMS. Deconvoluted monoisotopic intensities of unmodified vs. compound-modified mass peaks were compared.
Target sequence in this assay (P31749 2-480): as the sequence (P31749 2-480) above

In data set [4] the target is T2, AKT1 E17K. The description is as above. Format: binding. Conditions: for AKT1 E17K t1/2: compound 1.5 μM, 2 hours at 37° C., then ARQ092 50 μM; for Off-rate Selectivity E17K/WT: ratio of t1/2. On the procedure:
as §2
Target sequence in this assay (P31749 2-480 E17K): as the sequence (P31749 2-480) above, with E16K counted along it

Data set [5] addresses T1, AKT1 WT. Kind of data set: Live cell target engagement (NanoBRET) in HEK293 cells. The conditions noted are these: HEK293, 2 hours at 37° C. Format: cell-based.
Target sequence in this assay (P31749 whole entry): as the sequence (P31749 whole entry E17K) above, with K17E counted along it
In a further data set the target is AKT2 (Homo sapiens (Human), UniProt P31751). The data set is described as above. The format is cell-based. The conditions noted are these: HEK293, 2 hours at 37° C.
AKT2, sequence (P31751 whole entry): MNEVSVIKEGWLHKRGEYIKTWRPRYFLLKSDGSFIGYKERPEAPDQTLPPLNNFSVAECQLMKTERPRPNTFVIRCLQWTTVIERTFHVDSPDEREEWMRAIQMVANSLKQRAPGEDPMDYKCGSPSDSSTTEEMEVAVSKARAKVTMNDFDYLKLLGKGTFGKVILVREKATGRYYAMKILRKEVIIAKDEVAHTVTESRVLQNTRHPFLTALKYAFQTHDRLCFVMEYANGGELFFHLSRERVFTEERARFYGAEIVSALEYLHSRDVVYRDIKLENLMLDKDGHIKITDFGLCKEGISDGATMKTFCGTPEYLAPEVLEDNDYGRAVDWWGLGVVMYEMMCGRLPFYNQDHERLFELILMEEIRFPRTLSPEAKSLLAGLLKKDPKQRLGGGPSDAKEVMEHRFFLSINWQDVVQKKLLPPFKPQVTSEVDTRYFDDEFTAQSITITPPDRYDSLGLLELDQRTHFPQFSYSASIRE

Molecules are shown by their SMILES.

AKT1 E17K mutant protein, sequence (P31749 2-480 E17K): as the sequence (P31749 2-480) above, with E16K counted along it

For the molecule `Nc1ncccc1-c1nc2ccc(-c3ccccc3)nc2n1-c1ccc(CNCCc2ccc(C=O)c(O)c2)cc1` [Compound 133, 4-(2-((4-(2-(2-aminopyridin-3-yl)-5-phenyl-3H-imidazo[4,5-b]pyridin-3-yl)benzyl)amino)ethyl)-2-hydroxybenzaldehyde], on AKT1 WT [1], the “covalent complex formation with AKT1 WT protein” value is listed as “a noticeable level of covalent complex was formed” and the “covalent complex formation with AKT1 WT protein in presence of competitor” value is “essentially no covalent complex formation”. Besides, at AKT1 E17K mutant protein, the “covalent complex formation with AKT1 E17K mutant protein” value is “a covalent complex between Compound 133 and AKT1 E17K mutant protein was observed”; the “covalent complex formation with AKT1 E17K mutant protein in presence of competitor” value is on record as “essentially no covalent complex formation”. On AKT1 E17K [2], the “AKT1 E17K IC50: Selectivity vs AKT1 WT” value was found to be 1.4, the “AKT1 E17K IC50: Selectivity vs AKT2” value came out at 4.7 and the IC50 is less than 0.1 µM. Also, the “AKT1 (WT) t1/2” value at AKT1 WT [3] came out at 22.7 min. Also, at AKT1 E17K [4], the “AKT1 E17K t1/2” value is 126 min and the “Off-rate Selectivity E17K/WT” value came out at 5.6. On AKT1 WT [5], the IC50 was less than 0.1 µM. At AKT2, this molecule returned an IC50 of 0.1 to 0.5 µM.

For `Nc1ncccc1-c1nc2cccnc2n1-c1ccc(CNC(=O)Cc2ccc(C=O)c(O)c2)cc1` [Compound 96, N-(4-(2-(2-aminopyridin-3-yl)-3H-imidazo[4,5-b]pyridin-3-yl)benzyl)-2-(4-formyl-3-hydroxyphenyl)acetamide], at AKT1 WT [1], the “covalent complex formation with AKT1 WT protein” value is “significant presence of covalent complex” and the “covalent complex formation with AKT1 WT protein in presence of competitor” value is listed as “Essentially no covalent complex formation”. Moreover, on AKT1 E17K mutant protein, the “covalent complex formation with AKT1 E17K mutant protein” value is “significant presence of a covalent complex” and the “covalent complex formation with AKT1 E17K mutant protein in presence of competitor” value is “Essentially little to no covalent complex formation”. Moreover, at AKT1 E17K [2], the “AKT1 E17K IC50: Selectivity vs AKT1 WT” value was 4.6, the “AKT1 E17K IC50: Selectivity vs AKT2” value was found to be 64 and the IC50 was less than 0.1 µM. The “AKT1 (WT) t1/2” value on AKT1 WT [3] was determined as 10.7 min. Moreover, on AKT1 E17K [4], the “AKT1 E17K t1/2” value was 55.5 min and the “Off-rate Selectivity E17K/WT” value stood at 5.2. The molecule further returned an IC50 on AKT1 WT [5] of less than 0.1 µM. The molecule further came in with an IC50 at AKT2 greater than 0.5 µM.

Take `Nc1ncccc1-c1nc2cccnc2n1-c1ccc(CNC(=O)C(F)c2ccc(C=O)c(O)c2)cc1` (centres unmarked) [Compound 74, N-({4-[2-(2-aminopyridin-3-yl)imidazo[4,5-b]pyridin-3-yl]phenyl}methyl)-2-fluoro-2-(4-formyl-3-hydroxyphenyl)acetamide]: on AKT1 WT [1], the “covalent complex formation with AKT1 WT protein” value was “significant presence of covalent complex” and the “covalent complex formation with AKT1 WT protein in presence of competitor” value is listed as “Essentially no covalent complex formation”. Further, on AKT1 E17K mutant protein, the “covalent complex formation with AKT1 E17K mutant protein” value is recorded as “significant presence of a covalent complex” and the “covalent complex formation with AKT1 E17K mutant protein in presence of competitor” value is given as “Essentially little to no covalent complex formation”. For the same molecule, on AKT1 E17K [2], the “AKT1 E17K IC50: Selectivity vs AKT1 WT” value is recorded as 5.5, the “AKT1 E17K IC50: Selectivity vs AKT2” value worked out at 130 and the IC50 was less than 0.1 µM. Also, the “AKT1 (WT) t1/2” value on AKT1 WT [3] came to 12 min. On AKT1 E17K [4], the “AKT1 E17K t1/2” value amounted to 73.2 min and the “Off-rate Selectivity E17K/WT” value stood at 6.1. The IC50 against AKT1 WT [5] was less than 0.1 µM. The IC50 against AKT2 is greater than 0.5 µM.

For `Nc1ncccc1-c1nc2ccc(-c3ccccc3)nc2n1-c1ccc(CNC(=O)c2ccc(O)c(C=O)c2)cc1` [Compound 73, N-(4-(2-(2-aminopyridin-3-yl)-5-phenyl-3H-imidazo[4,5-b]pyridin-3-yl)benzyl)-3-formyl-4-hydroxybenzamide], the “covalent complex formation with AKT1 WT protein” value on AKT1 WT [1] is given as “small level of a covalent complex”. In addition, the “selectivity of complex formation, AKT1 E17K versus AKT1 WT” value on AKT1 E17K mutant protein (comparison of the spectra without competitor) is given as “selective for complex formation with AKT1 E17K”. Also, the “covalent complex formation with AKT1 E17K mutant protein” value at AKT1 E17K mutant protein is “presence of a covalent complex”. Also, at AKT1 E17K [2], the “AKT1 E17K IC50: Selectivity vs AKT1 WT” value is reported as 2.1, the “AKT1 E17K IC50: Selectivity vs AKT2” value worked out at 22 and the IC50 was less than 0.1 µM. Moreover, on AKT1 WT [3], the “AKT1 (WT) t1/2” value stood at 25 min. Also, at AKT1 E17K [4], the “AKT1 E17K t1/2” value is 94.2 min and the “Off-rate Selectivity E17K/WT” value came to 3.8. At AKT1 WT [5], the IC50 was less than 0.1 µM. Further, the 50% inhibitory concentration (IC50) against AKT2 lay in the range of 0.1 to 0.5 µM.

For `Nc1ncccc1-c1nc2ccc(-c3cccc(N4CCOCC4)c3)nc2n1-c1ccc(CNC(=O)Cc2ccc(C=O)c(O)c2F)cc1` [Example 21, N-({4-[2-(2-aminopyridin-3-yl)-5-[3-(morpholin-4-yl)phenyl]imidazo[4,5-b]pyridin-3-yl]phenyl}methyl)-2-(2-fluoro-4-formyl-3-hydroxyphenyl)acetamide], on AKT1 WT [1], the “covalent complex formation with AKT1 WT protein” value was “significant presence of a covalent complex” and the “covalent complex formation with AKT1 WT protein in presence of competitor” value is on record as “Essentially no covalent complex formation”. Besides, on AKT1 E17K mutant protein, the “covalent complex formation with AKT1 E17K mutant protein” value was “significant presence of a covalent complex” and the “covalent complex formation with AKT1 E17K mutant protein in presence of competitor” value is recorded as “Essentially no covalent complex formation”. Also, at AKT1 E17K [2], the “AKT1 E17K IC50: Selectivity vs AKT1 WT” value is listed as 1.5, the “AKT1 E17K IC50: Selectivity vs AKT2” value was determined as 4.8 and the IC50 was less than 0.1 µM. The “AKT1 (WT) t1/2” value at AKT1 WT [3] was 45.3 min. At AKT1 E17K [4], the “AKT1 E17K t1/2” value turned out to be 68.2 min and the “Off-rate Selectivity E17K/WT” value was 1.5. Also, the IC50 on AKT1 WT [5] was less than 0.1 µM. Besides, at AKT2, the IC50 is less than 0.1 µM.

Take `Nc1ncccc1-c1nc2ccc(-c3ccccc3)nc2n1-c1ccc(CNCCc2ccc(C=O)cc2)cc1` [Compound 125, 4-(2-((4-(2-(2-aminopyridin-3-yl)-5-phenyl-3H-imidazo[4,5-b]pyridin-3-yl)benzyl)amino)ethyl)benzaldehyde]: on AKT1 WT [1], the “covalent complex formation with AKT1 WT protein” value is on record as “only peaks corresponding to unmodified WT protein” and the “covalent complex formation with AKT1 WT protein in presence of competitor” value was “only peaks corresponding to unmodified WT protein”. Moreover, at AKT1 E17K mutant protein, the “covalent complex formation with AKT1 E17K mutant protein” value is listed as “presence of covalent complex” and the “covalent complex formation with AKT1 E17K mutant protein in presence of competitor” value is recorded as “Essentially no covalent complex formation”. In addition, at AKT1 E17K [2], the “AKT1 E17K IC50: Selectivity vs AKT1 WT” value worked out at 0.28, the “AKT1 E17K IC50: Selectivity vs AKT2” value worked out at 0.39 and the IC50 was 0.1 to 0.5 µM. Further, the “AKT1 (WT) t1/2” value on AKT1 WT [3] stood at 45.3 min. Further, at AKT1 E17K [4], the “AKT1 E17K t1/2” value amounted to 176 min and the “Off-rate Selectivity E17K/WT” value was 3.9. Besides, the IC50 against AKT1 WT [5] fell in the range of 0.1 to 0.5 µM. The molecule also displayed an IC50 on AKT2 of 0.1 to 0.5 µM.
